Test results published in US7807411B2, “Genetically encoded fluorescent coumarin amino acids” (The Scripps Research Institute, priority 2006, dated 2010).

B1: CouRS-D8 (protein)
chain: MDEFEMIKRNTSEIISEEELREVLKKDEKSAEIGFEPSGKIHLGHYLQIKKMIDLQNAGFDIIIHLGDLGAYLNQKGELDEIRKIGDYNKKVFEAMGLKAKYVYGSEYHLDKDYTLNVYRLALKTTLKRARRSMELIAREDENPKVAEVIYPIMQVNGIHYGGVDVAVGGMEQRKIHMLARELLPKKVVCIHNPVLTGLDGEGKMSSSKGNFIAVDDSPEEIRAKIKKAYCPAGVVEGNPIMEIAKYFLEYPLTIKRPEKFGGDLTVNSYEELESLFKNKELHPMDLKNAVAEELIKILEPIRKRL
modifications: L-(7-hydroxycoumarin-4-yl) ethylglycine aminoacyl-tRNA synthetase

Experiments:
[1] = Absorption and emission spectra of the coumarin amino acid; type: physicochemical; details: phenolate form, pH 7.4, 100 mM sodium phosphate buffer
Protocol: FIG. 2 provides absorption and emission spectra of L-(7-hydroxycoumarin-4-yl)ethylglycine. Both spectra were recorded at pH 7.4, 100 mM sodium phosphate buffer. At this pH, L-(7-hydroxycoumarin-4-yl)ethylglycine is present in both phenol and phenolate forms (in approximately a 2:1 ratio). The phenolate form has an extinction coefficient of 17000 at […] and a quantum yield of 0.63.

[2] = pH sensitivity of the absorption spectrum (pKa determination); type: physicochemical; details: 60 μM in 100 mM sodium phosphate buffer, calculated from absorbance at 360 nm versus pH
Protocol: FIG. 7 provides an absorption spectrum of 60 μM coumarinyl amino acid L-(7-hydroxycoumarin-4-yl)ethylglycine in 100 mM sodium phosphate buffer.
The absorption spectrum of 60 μM coumarinyl amino acid 7-hydroxycoumarin-ethylglycine was measured in 100 mM sodium phosphate buffer. The absorbance of 360 nm increased while pH increased.

[3] = system: amber codon in the chloramphenicol acetyl transferase (CAT) gene; assay: Chloramphenicol survival of synthetase clones (amber suppression in CAT gene); type: cell-based, E. coli; details: 60 hours at 37° C., GMML-agar
Protocol: Subsequently, this library was subjected to rounds of both positive and negative selections. In the positive selection, cell survival is dependent on the suppression of an amber codon introduced at a permissive site in the chloramphenicol acetyl transferase (CAT) gene when cells co-transformed with pBK-lib and MjtRNA^TyrCUA are grown in the presence of 1 mM unnatural amino acid (UAA) and chloramphenicol (Xie and Schultz, Methods (2005) 36:227-238). Positively selected clones are then transformed into cells containing MjtRNA^TyrCUA and a gene encoding the toxic barnase protein with three amber mutations introduced at permissive sites. These cells are grown in the absence of UAA to remove any clones that utilize endogenous amino acids (negative selection). These positive and negative selection are described in detail below.
Positive Selection—E. coli DH10B harboring the pREP(2)/YC plasmid was used as the host strain for the positive selection. Cells were transformed with the pBK-lib5 library, recovered in SOC for 1 hour, washed twice with glycerol minimal media with leucine (GMML) before plating on GMML-agar plates supplemented with kanamycin, chloramphenicol, tetracycline and 7-hydroxycoumarin-ethylglycine at 50 μg/mL, 60 μg/mL, 15 μg/mL and 1 mM respectively. […]

Row | Molecule | extinction coefficient ([1]; at 360 nm) [M⁻¹ cm⁻¹] | quantum yield [1] | pKa [2] | chloramphenicol concentration at which the clone survives ([3]; in the absence of 7-hydroxycoumarin-ethylglycine) [µg/mL] | chloramphenicol concentration at which the clone survives ([3]; in the presence of 1 mM 7-hydroxycoumarin-ethylglycine) [µg/mL]
1 | N[C@@H](CCc1cc(=O)oc2cc(O)ccc12)C(=O)O [L-(7-hydroxycoumarin-4-yl)ethylglycine] | 17000 | 0.63 | 7.8 | – | –
2 | B1 | – | – | – | 20 | 100
